Measured values: US11578055B2, “Triazacyclododecansulfonamide (“TCD”)-based protein secretion inhibitors” (KEZAR LIFE SCIENCES, priority 2018, dated 2023)
Like-named read-outs stand apart in the source and are kept apart here.

What was measured:
[1] = system: PD1 signal sequence plus 10 amino acids fused to Gaussia Luciferase (PD1-ss+10aa/Gaussia Luciferase); assay: Dox Induced PD1-ss-Gluc Assay; assay type: cell-based; settings: 24 hr, read-out: 24 hr Dox Inducible PD1ssGluc 293FRT/TO: Mean IC50
Outline: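 Compound dilutions in DMSO/media containing doxycycline were applied to a stable, inducible 293 T-REx line carrying the luciferase fusion, then incubated at 37 °C, 5% CO2. Where stereochemistry is not drawn, values relate to isomer mixtures.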

[2] = system: full length TNFα (amino acids 1-233) fused to Gaussia Luciferase; assay: Dox Induced TNFα-FL-Gluc Assay; assay type: cell-based; settings: 24 hr, read-out: 24 hr Dox Inducible TNFaFLGluc 293FRT/TO: Mean IC50
Outline: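 Compounds diluted in DMSO/medium with doxycycline were incubated at 37° C, 5% CO2 with 293 T-REx cells stably carrying a Tet-regulated TNFα(1-233)-Gaussia luciferase construct. Data for structures drawn without stereochemistry refer to stereoisomer mixtures.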

[3] = system: full length IL-2 (amino acids 1-153) fused to Gaussia Luciferase; assay: Dox Induced IL2-FL-Gluc Assay; assay type: cell-based; settings: 24 hr, read-out: 24 hr Dox Inducible IL2FLGluc 293FRT/TO: Mean IC50
Description: FIp-In 293 T-REx™ cells were transfected with pcDNA™5/FRT/TO plasmid inserted with cDNA encoding Gaussia Luciferase fused to the 3′ end of cDNA encoding full length IL-2 (amino acids 1-153). Transfected cells were selected for resistance to the selectable markers Hygromycin and Blasticidin to create a stable cell line that contained the IL-2-FL/Gaussia Luciferase cDNA insert whose expression was regulated under the T-REx™ system. The day before assay, cells were trypsinized and plated in 384-well tissue culture plates. The next day, compound dilutions in DMSO/media containing doxycycline were added to the wells and incubated at 37° C., 5% CO2.
For chemical structures that include one or more stereoisomers, but are illustrated without indicating stereochemistry, the assay data refers to a mixture of stereoisomers.

[4] = system: multiple myeloma cell line NCl-H929; assay: H929 Cell Viability Assay; assay type: cell-based, human
Outline: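 Viability was determined by CellTiter-Glo luminescence after a 48 h, 37 °C exposure of NCI-H929 cells to serial compound dilutions in medium containing 10% FBS. Where stereochemistry is not shown, values refer to a mix of stereoisomers.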

[5] = system: multiple myeloma cell line U266B1; assay: U266 Cell Viability Assay; assay type: cell-based, human; settings: Homo sapiens, U-266, 48 hr
Outline: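 Viability was measured by CellTiter-Glo luminescence after 48 h compound exposure at 37° C, 5% CO2. The cells were U266B1 multiple myeloma cells grown in RPMI 1640 plus 10% FBS. Where stereochemistry is not shown, values apply to the stereoisomer mixture.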

[6] = In Vitro Microsome Stability Assay (human); assay type: in vitro ADME
Outline: (§1)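 The value reported is the percentage of parent left after 30 min, calculated from analyte/IS peak-area ratios relative to time zero by LC-MS/MS. Incubations ran at 37° C in 0.1 M potassium phosphate with NADPH and microsomes (stock 20 mg/mL), with compound added from a 0.25 mM DMSO stock. Acetonitrile containing IS stopped the reactions.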

[7] = In Vitro Microsome Stability Assay (mouse); assay type: in vitro ADME
Outline: as §1

[8] = In Vitro Microsome Stability Assay (rat); assay type: in vitro ADME
Outline: as §1

[9] = In Vitro Microsome Stability Assay (monkey); assay type: in vitro ADME
Outline: as §1

[10] = Homo sapiens, NCI-H929, 48 h, H929, Celltiter-Glo
[11] = human liver microsomes, 30 min w/ NADPH
[12] = mouse liver microsomes, 30 min w/ NADPH
[13] = rat liver microsomes, 30 min w/ NADPH
[14] = monkey liver microsomes, 30 min w/ NADPH
[15] = Homo sapiens, NCI-H929, 48 h, H929, read-out: 48 hr H929 Viability Celltiter-Glo: Mean EC50
[16] = U266, read-out: 48 hr U266 Viability Celltiter-Glo: Mean EC50

| Compound | IC50 ([1]; Dox inducible, 293FRT/TO cells) [µM] | IC50 ([2]; Dox inducible, 293FRT/TO cells) [µM] | IC50 ([3]; Dox inducible, 293FRT/TO cells) [µM] | EC50 [4, 10] [µM] | EC50 ([5]; U266, Celltiter-Glo) [µM] | Liver Microsome Stability-% Left after 30 min w/ NADPH (%) Human [6, 11] [%] | Liver Microsome Stability-% Left after 30 min w/ NADPH (%) Mouse [7, 12] [%] | Liver Microsome Stability-% Left after 30 min w/ NADPH (%) Rat [8, 13] [%] | Liver Microsome Stability-% Left after 30 min w/ NADPH (%) Monkey [9, 14] [%] | IC50 ([1]; 293FRT/TO) [µM] | IC50 ([2]; 293FRT/TO) [µM] | IC50 ([3]; 293FRT/TO) [µM] | EC50 [4, 15] [µM] | EC50 [5, 16] [µM] | Liver Microsome Stability-% Left after 30 min w/ NADPH (%) Human ([6]; human, 30 min, NADPH) [%] | Liver Microsome Stability-% Left after 30 min w/ NADPH (%) Mouse ([7]; mouse, 30 min, NADPH) [%] | Liver Microsome Stability-% Left after 30 min w/ NADPH (%) Rat ([8]; rat, 30 min, NADPH) [%] | Liver Microsome Stability-% Left after 30 min w/ NADPH (%) Monkey ([9]; monkey, 30 min, NADPH) [%] | EC50 ([4]; 48 hr, H929, read-out: 48 hr H929 Viability Celltiter-Glo: Mean EC50) [µM] |
| --- | --- | --- | --- | --- | --- | --- | --- | --- | --- | --- | --- | --- | --- | --- | --- | --- | --- | --- | --- |
| Cc1cc(F)ccc1N1CCN(S(=O)(=O)N2CCCN(CC3CCCCC3)CCCN(S(=O)(=O)c3ccc(N(C)C)cc3)C[C@H](C)C2)[C@@H](C)C1 [A162, 4-{[(3S)-9-(cyclohexylmethyl)-5-{[(2 S)-4-(4-fluoro-2-methylphenyl)-2-methylpiperazin-1-yl]sulfonyl}-3-methyl-1,5,9-triazacyclododecan-1-yl]sulfonyl}-N,N-dimethylaniline] | 0.101 | 6.26 | 0.201 | > 25 | > 25 | 70.5 | 62.5 | 69.6 | 60.3 |  |  |  |  |  |  |  |  |  |  |
| C[C@H]1CN(S(=O)(=O)c2ccc(N(C)C)cc2)CCCN(CC2CCCCC2)CCCN(S(=O)(=O)N2CCN(c3ncccn3)CC2)C1 [A93, 4-{[(3S)-9-(cyclohexylmethyl)-3-methyl-5-{[4-(pyrimidin-2-yl)piperazin-1-yl]sulfonyl}-1,5,9-triazacyclododecan-1-yl]sulfonyl}-N,N-dimethylaniline] |  |  |  |  |  |  |  |  |  | 0.67 | > 25 | 0.911 | 10.4 | > 25 | 0.84 | 0.4 | 0.51 | 0.18 |  |
| C[C@H]1CN(S(=O)(=O)c2ccc(N(C)C)cc2)CCCN(CC2CCCCC2)CCCN(S(=O)(=O)N2CCNCC2)C1 [A155, 4-{[(3S)-9-(cyclohexylmethyl)-3-methyl-5-(piperazine-1-sulfonyl)-1,5,9-triazacyclododecan-1-yl]sulfonyl}-N, N-dimethylaniline] | 1.35 |  | 3.48 | 7.8 | > 25 | 17.8 | 16.8 | 38.8 | 4.86 |  |  |  |  |  |  |  |  |  |  |
| C[C@@H](CN(C)S(=O)(=O)c1ccc(N(C)C)cc1)CN(C)S(=O)(=O)N1CCc2cc(Cl)ccc2C1 [B12] | 5.66 | > 25 | > 25 | > 25 | > 25 |  |  |  |  |  |  |  |  |  |  |  |  |  |  |
| C[C@H](CNS(=O)(=O)c1ccc(N(C)C)cc1)CNS(=O)(=O)N1CCc2cc(Cl)ccc2C1 [B11, N-[(2 R)-3-{[(6-chloro-1,2,3,4-tetrahydroisoquinolin-2-yl)sulfonyl]amino}-2-methylpropyl]-4-(dimethylamino)benzene-1-sulfonamide] | > 25 | > 25 | > 25 | > 25 | > 25 |  |  |  |  |  |  |  |  |  |  |  |  |  |  |
| C[C@@H](CNS(=O)(=O)c1ccc(N(C)C)cc1)CNS(=O)(=O)N1CCc2cc(Cl)ccc2C1 [B10, (S)-6-chloro-N-(3-((4-(dimethylamino)phenyl)sulfonamido)-2-methylpropyl)-3,4-dihydroisoquinoline-2(1H)-sulfonamide] | 16.5 | > 25 | 6.92 | > 25 | > 25 |  |  |  |  |  |  |  |  |  |  |  |  |  |  |
| O=S(=O)(C1CCCCC1)N1CCCN(CC2CCCCC2)CCCN(S(=O)(=O)N2CCCCC2)CC2(CC2)C1 [A41] |  |  |  |  |  |  |  |  |  | 17.5 | > 25 |  | > 25 | > 25 | 0.08 | 0.2 | 0.14 | 0.1 |  |
| COC1CCN(S(=O)(=O)N2CCCN(CC3CCCCC3)CCCN(S(=O)(=O)c3ccc(N(C)C)cc3)CC3(CC3)C2)CC1 [A27, 4-{[9-(cyclohexylmethyl)-13-[(4-methoxypiperidin-1-yl)sulfonyl]-5,9,13-triazaspiro[2.11]tetradecan-5-yl]sulfonyl}-N,N-dimethylaniline] |  |  |  |  |  |  |  |  |  | 0.493 | > 25 |  | > 25 | > 25 | 2.52 | 2.15 | 0.98 | 2.07 |  |
| C=C1CN(S(=O)(=O)c2ccc(N(C)C)cc2)CCCN(CC2CCCCC2)CCCN(S(=O)(=O)N2CCC(C3CCCC3)CC2)C1 [A64, 4-{[9-(cyclohexylmethyl)-5-[(4-cyclopentylpiperidin-1-yl)sulfonyl]-3-methylidene-1,5,9-triazacyclododecan-1-yl]sulfonyl}-N,N-dimethylaniline] |  |  |  |  |  |  |  |  |  | 0.075 | 3.29 |  | 6.4 | > 25 | 53.3 | 53.1 | 63.1 | 48 |  |
| C=C1CN(S(=O)(=O)c2ccc(N(C)C)cc2)CCCN(CC2CCCCC2)CCCN(S(=O)(=O)N2CCC(c3ccccc3Cl)CC2)C1 [A57, 4-[(5-{[4-(2-chlorophenyl)piperidin-1-yl]sulfonyl}-9-(cyclohexylmethyl)-3-methylidene-1,5,9-triazacyclododecan-1-yl)sulfonyl]-N,N-dimethylaniline] |  |  |  |  |  |  |  |  |  | 0.0734 | 7.81 |  | > 25 | > 25 | 31.9 | 60.2 | 84 | 28.5 |  |
| C=C1CN(S(=O)(=O)c2ccc(C)cc2)CCCN(CC2CCCCC2)CCCN(S(=O)(=O)C2CCCCC2)C1 [A5] |  |  |  |  |  |  |  |  |  | 0.651 | > 25 |  |  | > 25 | 0.24 | 0.27 | 0.24 | 0.31 | 8.43 |
